The results in this text go back to ChEMBL document CHEMBL1138822, “Bis-quinolinium cyclophanes: toward a pharmacophore model for the blockade of apamin-sensitive SKCa channels in sympathetic neurons” (Bioorg Med Chem Lett, 2004).

The assay concerns the target Small conductance calcium-activated potassium channel (Rattus norvegicus, UniProt P70604+P70606+P70605). Description: Inhibition of after hyperpolarization (AHP) of cultured rat sympathetic neurons as SKCa channel blocking activity. The conditions noted are these: sympathetic neuron. Type of assay: functional, cell-based.
Consider `c1ccc2c(c1)c1cc[n+]2CCCC[n+]2ccc(c3ccccc32)NCCCCN1`, for which the IC50 is 40 nM. The same measure for `[I-].[I-].c1ccc2c(c1)c1cc[n+]2CCCCCCCC[n+]2ccc(c3ccccc32)NCCCCCCCCN1`: 190 nM; for `c1ccc2c(c1)c1cc[n+]2CCCCC[n+]2ccc(c3ccccc32)NCCCCCCN1`: 12 nM; for `c1cc2cc(c1)C[n+]1ccc(c3ccccc31)NCCCNc1cc[n+](c3ccccc13)C2`: 25 nM. The same measure for `c1cc2cc(c1)C[n+]1ccc(c3ccccc31)NCCCCCNc1cc[n+](c3ccccc13)C2`: 31 nM. The same measure for `c1ccc2c(c1)c1cc[n+]2CCCC[n+]2ccc(c3ccccc32)NCCCCCN1`: 15 nM; for `c1ccc2c(c1)c1cc[n+]2CCCCC[n+]2ccc(c3ccccc32)NCCCCN1`: 9 nM. Regarding `c1ccc2c(c1)c1cc[n+]2CCCCCC[n+]2ccc(c3ccccc32)NCCCCCN1`, the IC50 came out at 16 nM. In the case of `c1ccc2c(c1)c1cc[n+]2CCCCC[n+]2ccc(c3ccccc32)NCCCN1`, the IC50 was 30 nM. The same measure for `c1ccc2c(c1)c1cc[n+]2CCCCCCCCCC[n+]2ccc(c3ccccc32)NCCCCCCCCCCN1`: 260 nM; for `c1ccc2c(c1)c1cc[n+]2CCCCCC[n+]2ccc(c3ccccc32)NCc2ccc(cc2)CN1`: 65 nM. In the case of `c1ccc2c(c1)c1cc[n+]2CCCCCC[n+]2ccc(c3ccccc32)NCCCCCCN1`, the IC50 came out at 60 nM. The same measure for `c1ccc2c(c1)c1cc[n+]2CCCCC[n+]2ccc(c3ccccc32)NCc2ccc(cc2)CN1`: 60 nM; for `c1cc2cc(c1)C[n+]1ccc(c3ccccc31)NCCCCCCNc1cc[n+](c3ccccc13)C2`: 35 nM. As for `[I-].[I-].c1ccc2c(c1)c1cc[n+]2CCCCC[n+]2ccc(c3ccccc32)NCCCCCN1`, the figure is 2 nM.

`c1ccc2c(c1)c1cc[n+]2CCC[n+]2ccc(c3ccccc32)NCc2ccc(cc2)CN1`: the IC50 came to 150 nM.

Regarding `c1ccc2c(c1)c1cc[n+]2CCC[n+]2ccc(c3ccccc32)NCCCN1` (stereo in doubt; 2l), the IC50 was 630 nM. On to `c1ccc2c(c1)c1cc[n+]2CCC[n+]2ccc(c3ccccc32)NCCCN1` (stereo in doubt; 2m), for which the IC50 stood at 380 nM. As for `Cc1cc(N)c2ccccc2[n+]1CCCCCCCCCC[n+]1c(C)cc(N)c2ccccc21.[Cl-].[Cl-]` [DEQUALINIUM CHLORIDE], the figure is 900 nM.
